Experimental findings from ChEMBL document CHEMBL4346677, “Compounds based on 5-(perylen-3-ylethynyl)uracil scaffold: High activity against tick-borne encephalitis virus and non-specific activity against enterovirus A” (Eur J Med Chem, 2019) are described below.

Data set [1] in a line: Cytotoxicity against PEK cells assessed as reduction in cell viability after 24 hrs by microscopic method. The class given is cell-based, Sus scrofa. Particulars: pig.
The nature of data set [2]: Cytotoxicity against African green monkey Vero cells assessed as reduction in cell viability after 7 days by microscopic method. Type of data set: cell-based. Particulars: chlorocebus sabaeus.
The test system of data set [3] is RD. The experiment in a line: Cytotoxicity against human RD cells assessed as reduction in metabolic activity at >20 uM after 24 hrs by CellTiter-Blue assay. Type of data set: ADME, cell-based. In general terms: Resazurin is reduced to fluorescent resorufin, in cell work by metabolically active cells.
Data set [4] can be described thus: Cytotoxicity against African green monkey Vero cells assessed as reduction in cell viability after 24 hrs by microscopic method. Type of data set: cell-based. Particulars: chlorocebus sabaeus.
For a further data set, the system named is Echovirus. Put plainly: Antiviral activity against Echovirus 30 isolate 48461. The class given is functional, organism-based.
The nature of data set [5]: Cytotoxicity against PEK cells assessed as formation of syncytium-like patterns of cells at 50 uM after 7 days by microscopic method. The class given is cell-based, Sus scrofa. Particulars: pig, 168 h.
Data set [6] can be described thus: Cytotoxicity against human RD cells assessed as reduction in cell viability after 24 hrs by microscopic method. The class given is cell-based.
In data set [7] the test system is RD. The experiment in a line: Cytotoxicity against human RD cells assessed as formation of syncytium-like patterns of cells at 50 uM after 7 days by microscopic method. Type of data set: cell-based. Particulars: 168 h.
The nature of data set [8]: Cytotoxicity against PEK cells assessed as reduction in metabolic activity at >20 uM after 24 hrs by CellTiter-Blue assay. Particulars: pig. Type of data set: ADME, cell-based, Sus scrofa.
Data set [9] can be described thus: Cytotoxicity against human RD cells assessed as reduction in cell viability after 7 days by microscopic method. Type of data set: cell-based.
Data set [10] has as its system Tick-borne encephalitis virus. Put plainly: Antiviral activity against TBEV Absettarov infected in PEK cells assessed as plaque reduction preincubated for 1 hr followed by overlaying with 1.26% methylcellulose and measured after 6 days by gentian violet staining-based assay. The class given is functional, organism-based.
Data set [11] relates to Vero. Put plainly: Cytotoxicity against African green monkey Vero cells assessed as formation of syncytium-like patterns of cells at 50 uM after 7 days by microscopic method. Particulars: chlorocebus sabaeus, 168 h. Type of data set: cell-based.
The nature of data set [12]: Cytotoxicity against PEK cells assessed as reduction in cell viability after 7 days by microscopic method. Type of data set: cell-based, Sus scrofa. Particulars: pig.
Data set [13] relates to Vero. Put plainly: Cytotoxicity against African green monkey Vero cells assessed as reduction in metabolic activity at >20 uM after 24 hrs by CellTiter-Blue assay. Type of data set: ADME, cell-based. Particulars: chlorocebus sabaeus.
A further data set relates to Poliovirus 1. The experiment in a line: Antiviral activity against poliovirus type 1 sabin 1. The class given is functional, organism-based.
For the next data set, the system named is Enterovirus A71. Put plainly: Antiviral activity against Enterovirus A71 isolate 46973 infected in human RD cells assessed as reduction in virus induced cytopathic effect preincubated with viral suspension for 1 hr followed by cell addition measured after 5 to 7 days. The class given is functional, organism-based.
The nature of data set [14]: Selectivity index, ratio of CC50 for MDCK cells to EC50 for H1N1 infected in MDCK cells. Type of data set: toxicity, cell-based. Particulars: dog, read-out: Ratio CC50/EC50.
Data set [15] has as its system Vesicular stomatitis virus. Put plainly: Antiviral activity against VSV infected in African green monkey Vero cells assessed as plaque reduction preincubated for 10 mins inocula removed after 1 hr followed by overlaying with 2% methylcellulose and measured after 1 to 2 days by crystal violet staining based assay. The class given is functional, organism-based.
For another data set, the system named is Hepatitis C virus. The experiment in a line: Antiviral activity against HCV JFH1 infected in human Huh7.5 cells assessed as NS3 expression by western blot analysis. The class given is functional, organism-based, Hepacivirus hominis. Particulars: JFH1, Huh7.5. In general terms: A western blot detects proteins with antibodies after separation by electrophoresis.

Data set [16] in a line: Selectivity index, ratio of CC50 for African green monkey Vero cells to EC50 for VSV infected in Vero cells. The class given is toxicity, cell-based. Particulars: read-out: Ratio CC50/EC50.
The next data set deals with Murid betaherpesvirus 1. Put plainly: Antiviral activity against mCMV infected in mouse NIH3T3 cells assessed as reduction in virus induced cytopathogenicity. The class given is functional, organism-based. Particulars: Murid betaherpesvirus 1, NIH3T3.
The next data set concerns Human alphaherpesvirus 2. The experiment in a line: Antiviral activity against HSV-2 infected in African green monkey Vero cells assessed as plaque reduction preincubated for 10 mins inocula removed after 1 hr followed by overlaying with 2% methylcellulose and measured after 1 to 2 days by crystal violet staining based assay. The class given is functional, organism-based. Particulars: Human alphaherpesvirus 2, Vero.

Data set [17] can be described thus: Selectivity index, ratio of CC50 for mouse NIH3T3 cells to EC50 for mCMV infected in NIH3T3 cells. The class given is toxicity, cell-based. Particulars: read-out: Ratio CC50/EC50.
Data set [18] in a line: Selectivity index, ratio of CC50 for African green monkey Vero cells to EC50 for HSV-2 infected in Vero cells. Type of data set: toxicity, cell-based. Particulars: read-out: Ratio CC50/EC50.
For data set [19], the system named is Influenza A virus. Put plainly: Antiviral activity against influenza A virus H3N2 infected in dog MDCK cells assessed as plaque reduction preincubated for 10 mins inocula removed after 1 hr followed by overlaying with 0.8% agarose and measured after 1 to 2 days by crystal violet staining based assay. The class given is functional, organism-based.
Data set [20] concerns Influenza A virus. The experiment in a line: Antiviral activity against influenza A virus H1N1 infected in dog MDCK cells assessed as plaque reduction preincubated for 10 mins inocula removed after 1 hr followed by overlaying with 0.8% agarose and measured after 1 to 2 days by crystal violet staining based assay. Type of data set: functional, organism-based.
A short description of data set [21]: Selectivity index, ratio of CC50 for African green monkey Vero cells to EC50 for Sindbis infected in Vero cells. The class given is toxicity, cell-based. Particulars: read-out: Ratio CC50/EC50.
The next data set concerns Sindbis virus. Put plainly: Antiviral activity against Sindbis virus infected in African green monkey Vero cells assessed as plaque reduction preincubated for 10 mins inocula removed after 1 hr followed by overlaying with 2% methylcellulose and measured after 1 to 2 days by crystal violet staining based assay. The class given is functional, organism-based.
A short description of data set [22]: Selectivity index, ratio of CC50 for African green monkey Vero cells to EC50 for HSV-1 infected in Vero cells. Particulars: read-out: Ratio CC50/EC50. The class given is toxicity, cell-based.
The subject of a further data set is Human alphaherpesvirus 1. The experiment in a line: Antiviral activity against HSV-1 infected in African green monkey Vero cells preincubated with virus for 5 mins. Type of data set: functional, organism-based. Particulars: Human alphaherpesvirus 1, Vero.
A short description of data set [23]: Selectivity index, ratio of CC50 for MDCK cells to EC50 for H3N2 infected in MDCK cells. The class given is toxicity, cell-based. Particulars: dog, read-out: Ratio CC50/EC50.
A short description of data set [24]: Selectivity index, ratio of CC50 for human Huh7.5 cells to EC50 for HCV JFH1 infected in Huh7.5 cells. Type of data set: toxicity, cell-based. Particulars: read-out: Ratio CC50/EC50.
A short description of data set [25]: Solubility of compound in 15% DMSO by spectrophotometric analysis. The class given is physicochemical.

≈ marks a conversion by molar mass, not a printed value. Calls of active or inactive are those of the source. The calls are words filed in the database; no cut-off is given here.

`CC(C)(CO)[C@@H](O)CNC(=O)Cn1cc(C#Cc2ccc3c4cccc5cccc(c6cccc2c63)c54)c(=O)[nH]c1=O`: the 50% cytotoxic concentration (CC50) (commonly the concentration at which the toxic effect on the cells reaches its halfway point) at 24 h in [1] was over 50 µM; in [4], 38 µM; in data set [6], 76 µM. For the same compound, the CC50 at 168 h in data set [2] was over 50 µM; in [9], 76 µM; in [12], over 50 µM. The Activity entry is given as “Toxic” in the data set on RD [3]; “Toxic” in data set [5]; “Toxic” in the data set with RD [7]; “Non-Toxic” in data set [8]; “Toxic” with Vero [11]; “Non-Toxic” in the data set on Vero [13]. Further, the result with Echovirus and in the data set with Poliovirus 1 was inactive. Further, the EC50 (in general, the concentration that produces a half-maximal response) in [10] amounted to 0.019 µM; in the data set on Enterovirus A71 (Enterovirus A, isolate 46973, RD, read-out: EC50), 108 µM.
In the case of `O=c1[nH]c(=O)n([C@H]2C[C@H](O)[C@@H](CO)O2)cc1C#Cc1ccc2c3cccc4cccc(c5cccc1c52)c43`, the selectivity ratio in [14], in [16], in [17], in data set [18], in data set [21] and in [22] was over 3000 throughout. In addition, the selectivity ratio in data set [23] and in [24] was over 3000 each time. For the same compound, the EC50 (in data set [15]; in the data set on Hepatitis C virus; with Murid betaherpesvirus 1; in the data set on Human alphaherpesvirus 2; with Influenza A virus [19]; in the data set with Influenza A virus [20]) was 0.002 to 0.283 µM throughout. The EC50 in the data set on Sindbis virus was 0.002 to 0.283 µM; with Human alphaherpesvirus 1, 0.048 µM.
Regarding `CC(C)(C)C(=O)OCn1c(=O)c(C#Cc2ccc3c4cccc5cccc(c6cccc2c63)c54)cn(CC(=O)N(CCO)CCO)c1=O`, the results for the CC50 at 24 h in [1], in [4] and in [6] were over 50 µM, 38 µM and 19 µM, respectively. Further, the CC50 at 168 h in data set [2] was over 50 µM; in data set [9] it was 14 µM; in [12], over 50 µM. In data set [25], the solubility (as a rule, the concentration that dissolves in the medium under given conditions) was determined as 1000 µM (≈ 648 µg/mL). For the same compound, the result with Echovirus and in the data set on Poliovirus 1 was inactive. The Activity result (in [5]; with RD [7]; in the data set on Vero [11]) was “Toxic” each time. For the same compound, the EC50 in [10] is 0.00044 µM; with Enterovirus A71 it was “Not Active”.
For the compound `CC(C)(C)C(=O)OCn1c(=O)c(C#Cc2ccc3c4cccc5cccc(c6cccc2c63)c54)cn(CC(=O)NCCCO)c1=O`, the results for the CC50 at 24 h in [1], in data set [4] and in data set [6] were over 50 µM, 38 µM and 19 µM, respectively. In addition, the CC50 at 168 h in [2] was over 50 µM; in data set [9] it was 10 µM; in data set [12] it was over 50 µM. In data set [25], the solubility turned out to be 49 µM (≈ 30.2 µg/mL). In addition, the result in the data set with Echovirus and in the data set with Poliovirus 1 was inactive. Besides, the Activity result (in data set [5]; in the data set on RD [7]; in the data set on Vero [11]) was “Toxic” each time. The EC50 in [10] is 0.00043 µM; in the data set with Enterovirus A71, “Not Active”.
As for `O=C(Cn1cc(C#Cc2ccc3c4cccc5cccc(c6cccc2c63)c54)c(=O)[nH]c1=O)NCCCCCO`, the figures for the half-maximal cytotoxic concentration (CC50) at 24 h in data set [1], in data set [4] and in data set [6] were over 50 µM, over 50 µM and over 104 µM, respectively. In addition, the figures for the 50% cytotoxic concentration (CC50) at 168 h in [2], in data set [9] and in data set [12] were over 50 µM, over 104 µM and over 50 µM, respectively. In addition, the result in the data set with Echovirus and in the data set on Poliovirus 1 was inactive. The Activity entry (in data set [5]; in the data set on RD [7]; in the data set on Vero [11]) was “Toxic” throughout. In addition, the EC50 in [10] is 0.077 µM; in the data set with Enterovirus A71, “Not Active”.
As for `CC(C)(C)C(=O)OCn1c(=O)c(C#Cc2ccc3c4cccc5cccc(c6cccc2c63)c54)cn(CC(=O)NCCCCCO)c1=O`, the results for the CC50 at 24 h in data set [1], in data set [4] and in data set [6] were over 50 µM, 32 µM and 19 µM, respectively. In addition, the figures for the CC50 at 168 h in data set [2], in data set [9] and in [12] were over 50 µM, 10 µM and over 50 µM, respectively. Further, the outcome in the data set on Echovirus and with Poliovirus 1 was inactive. Further, the Activity entry (in data set [5]; with RD [7]; in the data set with Vero [11]) was “Toxic” in each case. The EC50 is 0.0016 µM in [10] and “Not Active” in the data set with Enterovirus A71.
